Consider one molecule from US20160280641A1, “Method for refining 2-nito-4-methylsulfonyl benzoic acid and intermediate thereof” (priority 2013, published 2016).

A short description of the data set: Ames test of mesotrione products. In kind it is cell-based. As to conditions: mesotrione products made from the fine 2-nitro-4-methylsulfonyl benzoic acids obtained by different processes. The procedure:
The fine 2-nitro-4-methylsulfonyl benzoic acids obtained by different processes are transformed into mesotrione products, and activities thereof are tested in Ames tests, wherein Ames responses are negative.
A general note: In the Ames test, an excess of revertant colonies over the control signals mutagenicity.

SMILES strings stand for the structures.

In the case of `CS(=O)(=O)c1ccc(C(=O)C2C(=O)CCCC2=O)c([N+](=O)[O-])c1` [mesotrione, 2-(4-methanesulfonyl-2-nitrobenzoyl)-1,3-cyclohexanedione], the Ames responses entry is “negative”.
